This series has as its system CCRIS mutagenicity, Ames/micronucleus/aberration tests. Kind of series: CCRIS mutagenicity studies. Particulars: Test System: AMES SALMONELLA TYPHIMURIUM
Setting [1] is: Strain/Indicator: TA97, Metabolic Activation: NONE, Method: PREINCUBATION
Where [2] appears, read: Strain/Indicator: TA97, Metabolic Activation: NONE, Method: STANDARD PLATE.
The mark [3] stands for this setting: Strain/Indicator: TA98, Metabolic Activation: NONE, Method: PREINCUBATION
Where [4] appears, read: Strain/Indicator: TA98, Metabolic Activation: NONE, Method: STANDARD PLATE.
The mark [5] stands for this setting: Strain/Indicator: TA98, Metabolic Activation: RAT, LIVER, S-9, AROCLOR 1254, Method: STANDARD PLATE.
Where [6] appears, read: Strain/Indicator: TA100, Metabolic Activation: NONE, Method: PREINCUBATION
The mark [7] stands for this setting: Strain/Indicator: TA100, Metabolic Activation: NONE, Method: STANDARD PLATE.
Where [8] appears, read: Strain/Indicator: TA100, Metabolic Activation: RAT, LIVER, S-9, AROCLOR 1254, Method: STANDARD PLATE.
Setting [9] is: Strain/Indicator: TA104, Metabolic Activation: NONE, Method: STANDARD PLATE.
The mark [10] stands for this setting: Strain/Indicator: TA97, Metabolic Activation: RAT, LIVER, S-9, AROCLOR 1254, Method: PREINCUBATION
Where [11] appears, read: Strain/Indicator: TA102, Metabolic Activation: NONE, Method: PREINCUBATION
Where [12] appears, read: Strain/Indicator: TA102, Metabolic Activation: RAT, LIVER, S-9, AROCLOR 1254, Method: PREINCUBATION

Structures are written as SMILES. Activity calls are given as the source filed them. No rule for the calls is given here.

As for `Cc1cc(Cl)ccc1O`, the mutagenic call was “inactive; negative” (Strain/Indicator: TA97, Metabolic Activation: HAMSTER, LIVER, S-9, AROCLOR 1254 (10%), Method: PREINCUBATION); “inactive; negative” (Strain/Indicator: TA97, Metabolic Activation: HAMSTER, LIVER, S-9, AROCLOR 1254 (30%), Method: PREINCUBATION); “inactive; negative” under setting [1]; “active; positive” under setting [2]; “inactive; negative” (Strain/Indicator: TA97, Metabolic Activation: RAT, LIVER, S-9, AROCLOR 1254 (10%), Method: PREINCUBATION); “inactive; negative” (Strain/Indicator: TA97, Metabolic Activation: RAT, LIVER, S-9, AROCLOR 1254 (30%), Method: PREINCUBATION). Besides, the mutagenic call reads like this: (Strain/Indicator: TA97, Metabolic Activation: RAT, LIVER, S-9, AROCLOR 1254, Method: STANDARD PLATE) “active; positive”; (Strain/Indicator: TA98, Metabolic Activation: HAMSTER, LIVER, S-9, AROCLOR 1254 (10%), Method: PREINCUBATION) “inactive; negative”; (Strain/Indicator: TA98, Metabolic Activation: HAMSTER, LIVER, S-9, AROCLOR 1254 (30%), Method: PREINCUBATION) “inactive; negative”; under setting [3], “inactive; negative”; under setting [4], “inactive; negative”; (Strain/Indicator: TA98, Metabolic Activation: RAT, LIVER, S-9, AROCLOR 1254 (10%), Method: PREINCUBATION) “inactive; negative”. Moreover, the mutagenic call runs as follows: (Strain/Indicator: TA98, Metabolic Activation: RAT, LIVER, S-9, AROCLOR 1254 (30%), Method: PREINCUBATION) “inactive; negative”; under setting [5], “active; positive”; (Strain/Indicator: TA100, Metabolic Activation: HAMSTER, LIVER, S-9, AROCLOR 1254 (10%), Method: PREINCUBATION) “inactive; negative”; (Strain/Indicator: TA100, Metabolic Activation: HAMSTER, LIVER, S-9, AROCLOR 1254 (30%), Method: PREINCUBATION) “inactive; negative”; under setting [6], “inactive; negative”; under setting [7], “inactive; negative”. For the same compound, the mutagenic call (Strain/Indicator: TA100, Metabolic Activation: RAT, LIVER, S-9, AROCLOR 1254 (10%), Method: PREINCUBATION) was “inactive; negative”; the mutagenic call (Strain/Indicator: TA100, Metabolic Activation: RAT, LIVER, S-9, AROCLOR 1254 (30%), Method: PREINCUBATION) was “inactive; negative”; the mutagenic call under setting [8] was “active; positive”; the mutagenic call under setting [9] was “inactive; negative”; the mutagenic call (Strain/Indicator: TA104, Metabolic Activation: RAT, LIVER, S-9, AROCLOR 1254, Method: STANDARD PLATE) was “inactive; negative”; the mutagenic call (Strain/Indicator: TA1535, Metabolic Activation: HAMSTER, LIVER, S-9, AROCLOR 1254 (10%), Method: PREINCUBATION) is “inactive; negative”. The mutagenic call is “inactive; negative” (Strain/Indicator: TA1535, Metabolic Activation: HAMSTER, LIVER, S-9, AROCLOR 1254 (30%), Method: PREINCUBATION); “inactive; negative” (Strain/Indicator: TA1535, Metabolic Activation: NONE, Method: PREINCUBATION); “inactive; negative” (Strain/Indicator: TA1535, Metabolic Activation: RAT, LIVER, S-9, AROCLOR 1254 (10%), Method: PREINCUBATION); “inactive; negative” (Strain/Indicator: TA1535, Metabolic Activation: RAT, LIVER, S-9, AROCLOR 1254 (30%), Method: PREINCUBATION); “inactive; negative” (Strain/Indicator: TA1537, Metabolic Activation: HAMSTER, LIVER, S-9, AROCLOR 1254 (30%), Method: PREINCUBATION); “inactive; negative” (Strain/Indicator: TA1537, Metabolic Activation: NONE, Method: PREINCUBATION). Where the note is “Strain/Indicator: TA1537, Metabolic Activation: RAT, LIVER, S-9, AROCLOR 1254 (30%), Method: PREINCUBATION”, the mutagenic call was “inactive; negative”.
With `CC(C)CCOC(=O)CC(C)C`, the mutagenic call under setting [1] was “inactive; negative”, the mutagenic call under setting [10] is “inactive; negative”, the mutagenic call under setting [11] is “inactive; negative” and the mutagenic call under setting [12] is “inactive; negative”.
Regarding `COc1ccc(CN(C)N=O)cc1`, the mutagenic call (Strain/Indicator: TA1535, Metabolic Activation: HAMSTER, LIVER, S-9, AROCLOR 1254, Method: STANDARD PLATE) was “inactive; negative” and the mutagenic call (Strain/Indicator: TA1535, Metabolic Activation: NONE, Method: STANDARD PLATE) was “inactive; negative”.
On to `O=C(O)CC(O)C(=O)O` (stereo unspecified), for which the mutagenic call is “inactive; negative” under setting [1]; “inactive; negative” under setting [2]; “inactive; negative” under setting [10]; “inactive; negative” (Strain/Indicator: TA97, Metabolic Activation: RAT, LIVER, S-9, PHENOBARBITAL, Method: STANDARD PLATE); “inactive; negative” under setting [4]; “inactive; negative” (Strain/Indicator: TA98, Metabolic Activation: RAT, LIVER, S-9, PHENOBARBITAL, Method: STANDARD PLATE). In addition, the mutagenic call reads like this: under setting [7], “inactive; negative”; (Strain/Indicator: TA100, Metabolic Activation: RAT, LIVER, S-9, PHENOBARBITAL, Method: STANDARD PLATE) “inactive; negative”; under setting [11], “inactive; negative”; under setting [12], “inactive; negative”; under setting [9], “inactive; negative”; (Strain/Indicator: TA104, Metabolic Activation: RAT, LIVER, S-9, PHENOBARBITAL, Method: STANDARD PLATE) “inactive; negative”.
Regarding `Nc1cc([N+](=O)[O-])cc([N+](=O)[O-])c1`, the mutagenic call runs as follows: under setting [3], “active; positive”; under setting [4], “active; positive”; under setting [5], “active; positive”; (Strain/Indicator: TA98, Metabolic Activation: RAT, LIVER, S-9, KANECHLOR 500, Method: PREINCUBATION) “active; positive”; under setting [6], “active; positive”; under setting [7], “active; positive”. The mutagenic call is, setting by setting: under setting [8], “active; positive”; (Strain/Indicator: TA100, Metabolic Activation: RAT, LIVER, S-9, KANECHLOR 500, Method: PREINCUBATION) “active; positive”.
Take `CC1(OO)c2ccccc2-c2ccccc21`: the mutagenic call by setting is: under setting [4], “active; positive”; under setting [5], “active; positive”; under setting [7], “active; positive”; under setting [8], “active; positive”.

For the origin of these results see PubChem BioAssay AID1259407 (Chemical Carcinogenesis Research Information System (CCRIS), 2018).
